Tests used:
[1] = biological target: ErbB2 insYVMA (HER2-YVMA, SEQ ID NO: 2) (Homo sapiens, UniProt P04626, INS775YVMA/P1170A); experiment: biochemical; conditions: ErbB2 insYVMA enzyme assay; read-out: Assay 1 IC50
ErbB2 WT = ErbB2 WT (Homo sapiens (Human), UniProt P04626); experiment: ErbB enzyme assay (CisBio HTRF KinEASE-TK), Assay 2; type: biochemical
In short: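 ErbB2 phosphorylates 250 nM biotin-TK substrate at 1 mM ATP in 25 mM HEPES pH 7.4, 10 mM MgCl2, 0.01% Triton X-100 and 2% DMSO, for 30 min at 22 °C. Product is detected by HTRF with Sa-XL665 and TK-Ab-Cryptate. Percent of control is set by DMSO-only wells and pre-quenched wells.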

EGFR = EGFR (Homo sapiens (Human), UniProt P00533); experiment: ErbB enzyme assay (CisBio HTRF KinEASE-TK), Assay 3; type: biochemical
Chain of EGFR (P00533 25-1210): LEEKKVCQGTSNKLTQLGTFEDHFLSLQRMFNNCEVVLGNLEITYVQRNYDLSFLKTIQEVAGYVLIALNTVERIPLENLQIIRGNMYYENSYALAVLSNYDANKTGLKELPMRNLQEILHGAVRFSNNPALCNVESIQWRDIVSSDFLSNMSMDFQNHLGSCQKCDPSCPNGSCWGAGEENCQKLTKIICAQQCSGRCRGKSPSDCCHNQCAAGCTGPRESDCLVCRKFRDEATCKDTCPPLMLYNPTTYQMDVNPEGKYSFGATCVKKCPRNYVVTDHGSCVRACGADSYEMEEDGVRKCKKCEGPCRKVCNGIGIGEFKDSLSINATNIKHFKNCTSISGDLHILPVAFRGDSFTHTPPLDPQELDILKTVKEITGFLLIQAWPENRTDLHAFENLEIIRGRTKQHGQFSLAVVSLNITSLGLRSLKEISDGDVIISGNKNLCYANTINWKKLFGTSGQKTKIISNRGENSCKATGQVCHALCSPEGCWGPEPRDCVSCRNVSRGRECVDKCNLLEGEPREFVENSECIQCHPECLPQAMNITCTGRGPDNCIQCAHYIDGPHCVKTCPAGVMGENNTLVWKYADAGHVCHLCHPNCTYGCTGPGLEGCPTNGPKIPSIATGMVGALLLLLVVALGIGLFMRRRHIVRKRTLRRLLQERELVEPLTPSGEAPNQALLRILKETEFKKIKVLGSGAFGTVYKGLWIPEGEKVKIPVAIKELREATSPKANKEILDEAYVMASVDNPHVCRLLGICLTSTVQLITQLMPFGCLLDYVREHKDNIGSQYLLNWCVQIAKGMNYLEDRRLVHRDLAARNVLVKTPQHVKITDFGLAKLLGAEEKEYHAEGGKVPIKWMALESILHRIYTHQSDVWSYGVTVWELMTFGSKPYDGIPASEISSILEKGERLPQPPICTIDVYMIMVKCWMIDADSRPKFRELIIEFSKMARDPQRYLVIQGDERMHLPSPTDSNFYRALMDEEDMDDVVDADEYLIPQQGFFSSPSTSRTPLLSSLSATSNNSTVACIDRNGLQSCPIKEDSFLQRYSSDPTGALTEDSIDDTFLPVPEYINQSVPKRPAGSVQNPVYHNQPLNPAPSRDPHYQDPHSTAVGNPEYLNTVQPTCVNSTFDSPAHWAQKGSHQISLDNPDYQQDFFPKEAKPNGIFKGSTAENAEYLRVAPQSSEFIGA
In short: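 Kinase incubated 30 min at 22 °C with 250 nM biotinylated TK substrate, 1 mM ATP and serially diluted compound in 25 mM HEPES pH 7.4, 10 mM MgCl2, 0.01% Triton X-100, 2% DMSO. Phosphorylation read by HTRF (Sa-XL665/TK-Ab-Cryptate); IC50 from 4-parameter fit of percent of control.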

[2] = biological target: ErbB2 with Exon 20 YVMA insertion (HER2-YVMA) (Homo sapiens (Human), UniProt P04626, INS775YVMA); experiment: Cellular phosphorylation assay, constitutive ErbB2 phosphorylation (Y1196) in engineered NIH 3T3 cells, Assay 4; type: cell-based
Chain of ErbB2 with Exon 20 YVMA insertion (HER2-YVMA) (P04626 other isoform, or with tags, fused parts or gaps ins YVMA behind 775): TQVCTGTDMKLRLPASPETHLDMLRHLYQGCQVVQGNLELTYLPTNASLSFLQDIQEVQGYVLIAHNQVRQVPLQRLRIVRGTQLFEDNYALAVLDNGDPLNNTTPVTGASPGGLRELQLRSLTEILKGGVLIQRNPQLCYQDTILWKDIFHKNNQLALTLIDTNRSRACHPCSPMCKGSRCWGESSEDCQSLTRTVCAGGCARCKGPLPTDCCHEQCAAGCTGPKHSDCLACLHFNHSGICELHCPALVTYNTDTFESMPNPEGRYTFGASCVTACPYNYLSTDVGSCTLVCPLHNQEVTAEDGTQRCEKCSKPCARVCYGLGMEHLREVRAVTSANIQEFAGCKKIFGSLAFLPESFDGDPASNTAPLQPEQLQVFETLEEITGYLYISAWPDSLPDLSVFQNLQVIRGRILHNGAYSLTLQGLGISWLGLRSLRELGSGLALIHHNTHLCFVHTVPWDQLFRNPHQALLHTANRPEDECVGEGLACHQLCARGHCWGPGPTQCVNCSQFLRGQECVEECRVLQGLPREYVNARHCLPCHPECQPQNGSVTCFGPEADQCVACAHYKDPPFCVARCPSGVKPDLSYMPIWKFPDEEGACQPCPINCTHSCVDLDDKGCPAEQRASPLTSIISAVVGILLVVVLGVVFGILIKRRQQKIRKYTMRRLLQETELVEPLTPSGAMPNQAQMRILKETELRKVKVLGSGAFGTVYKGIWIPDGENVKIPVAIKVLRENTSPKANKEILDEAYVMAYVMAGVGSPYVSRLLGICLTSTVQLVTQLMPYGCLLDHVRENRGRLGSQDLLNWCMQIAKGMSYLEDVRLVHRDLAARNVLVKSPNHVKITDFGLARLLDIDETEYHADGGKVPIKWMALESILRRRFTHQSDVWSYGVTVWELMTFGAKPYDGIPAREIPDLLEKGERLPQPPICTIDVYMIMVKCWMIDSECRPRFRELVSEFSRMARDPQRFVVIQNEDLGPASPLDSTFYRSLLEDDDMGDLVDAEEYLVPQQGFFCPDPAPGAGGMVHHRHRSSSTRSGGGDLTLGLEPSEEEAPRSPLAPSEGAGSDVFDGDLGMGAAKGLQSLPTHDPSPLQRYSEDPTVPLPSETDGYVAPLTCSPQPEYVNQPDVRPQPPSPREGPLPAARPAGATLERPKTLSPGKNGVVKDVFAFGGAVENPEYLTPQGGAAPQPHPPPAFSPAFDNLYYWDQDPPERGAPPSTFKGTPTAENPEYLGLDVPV
In short: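 Engineered NIH 3T3 cells expressing HER2-YVMA treated with compounds 1 h at 37 °C, then formaldehyde-fixed and methanol-permeabilized. pErbB2 Y1196 detected by in-cell infrared immunofluorescence, normalized to GAPDH. IC50 from the normalized curves.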

EGFR wild type (EGFR WT) = EGFR wild type (EGFR WT) (Homo sapiens (Human), UniProt P00533); experiment: Cellular phosphorylation assay, EGF-stimulated EGFR phosphorylation in engineered NIH 3T3 cells, Phospho-EGFR DuoSet IC ELISA, Assay 5; type: cell-based
Chain of EGFR wild type (EGFR WT) (P00533 25-1210): as the sequence (P00533 25-1210) above
In short: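 NIH 3T3 cells expressing EGFR WT (20,000/well, attached overnight) were exposed to serially diluted compound for 1 h at 37 °C, then stimulated with 100 ng/ml rEGF for 10 min. Phospho-EGFR in lysates measured by sandwich ELISA optical density; IC50 from curves.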

MDR1 (P-gp) = MDR1 (P-gp) (Homo sapiens (Human), UniProt P08183); experiment: MDR1 transfected MDCKII canine Mdr1 knockout permeability/efflux, Assay 7; conditions: dog, MDCK-MDR1

Chain of ErbB2 WT (P04626 23-1255): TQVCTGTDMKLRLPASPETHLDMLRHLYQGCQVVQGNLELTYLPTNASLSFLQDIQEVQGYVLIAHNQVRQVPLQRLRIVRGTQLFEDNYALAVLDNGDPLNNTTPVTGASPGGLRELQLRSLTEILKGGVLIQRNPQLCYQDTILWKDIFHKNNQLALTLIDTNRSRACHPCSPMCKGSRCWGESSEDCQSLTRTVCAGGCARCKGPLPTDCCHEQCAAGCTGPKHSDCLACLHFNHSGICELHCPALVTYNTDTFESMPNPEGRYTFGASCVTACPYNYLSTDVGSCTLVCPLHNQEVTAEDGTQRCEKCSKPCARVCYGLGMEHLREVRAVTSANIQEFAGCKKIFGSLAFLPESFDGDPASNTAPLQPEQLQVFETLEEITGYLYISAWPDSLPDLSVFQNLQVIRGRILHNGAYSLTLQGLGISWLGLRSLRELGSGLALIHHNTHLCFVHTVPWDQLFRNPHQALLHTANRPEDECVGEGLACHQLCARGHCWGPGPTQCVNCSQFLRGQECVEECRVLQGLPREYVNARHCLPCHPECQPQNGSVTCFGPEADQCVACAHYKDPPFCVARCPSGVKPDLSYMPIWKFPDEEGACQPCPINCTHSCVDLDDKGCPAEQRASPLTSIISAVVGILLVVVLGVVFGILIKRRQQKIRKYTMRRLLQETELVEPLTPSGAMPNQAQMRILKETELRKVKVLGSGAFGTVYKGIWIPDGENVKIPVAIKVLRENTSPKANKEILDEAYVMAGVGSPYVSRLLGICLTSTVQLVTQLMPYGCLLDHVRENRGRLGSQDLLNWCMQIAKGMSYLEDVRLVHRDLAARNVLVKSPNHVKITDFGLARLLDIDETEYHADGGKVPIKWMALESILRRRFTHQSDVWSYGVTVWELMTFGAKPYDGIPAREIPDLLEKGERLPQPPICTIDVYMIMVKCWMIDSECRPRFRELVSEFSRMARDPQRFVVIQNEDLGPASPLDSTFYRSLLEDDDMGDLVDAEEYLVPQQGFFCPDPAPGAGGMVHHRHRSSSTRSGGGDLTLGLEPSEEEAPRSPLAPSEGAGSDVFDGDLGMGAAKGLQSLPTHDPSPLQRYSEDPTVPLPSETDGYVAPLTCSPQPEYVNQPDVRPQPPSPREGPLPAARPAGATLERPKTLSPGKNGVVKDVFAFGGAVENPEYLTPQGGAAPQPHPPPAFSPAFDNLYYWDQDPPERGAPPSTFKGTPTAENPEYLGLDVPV

Row | SMILES | IC50 [1] | IC50 (ErbB2 WT) | IC50 (EGFR) | IC50 [2] | IC50 (EGFR wild type (EGFR WT)) | efflux ratio at 2 h, 1 μM (MDR1 (P-gp))
1 | CN(CCC(C)(C)O)c1ncc2ncnc(Nc3ccc(Oc4ccn5ncnc5c4)c(Cl)c3)c2n1 [Example 101, 4-((8-((4-([1,2,4]triazolo[1,5-a]pyridin-7-yloxy)-3-chlorophenyl)amino)pyrimido[5,4-d]pyrimidin-2-yl)(methyl)amino)-2-methylbutan-2-ol] | 15.4 nM | 14.7 nM | ≥ 10000 nM | 8.2 nM | ≥ 5000 nM | 1.5
2 | Cc1cc(Nc2ncnc3cnc(N4CC5(CC(O)C5)C4)nc23)ccc1Oc1ccc2c(c1)ncn2C [Example 213, 2-(8-((3-methyl-4-((1-methyl-1H-benzo[d]imidazol-5-yl)oxy)phenyl)amino)pyrimido[5,4-d]pyrimidin-2-yl)-2-azaspiro[3.3]heptan-6-ol] | 19.7 nM | 33.9 nM | ≥ 10000 nM | 34.1 nM | ≥ 5000 nM | 2.4
3 | Cc1cc(Nc2ncnc3cnc(NCC4(O)COC4)nc23)ccc1Oc1ccc2c(c1)ncn2C [Example 319] | 16.7 nM | 4.5 nM | 870 nM | 26.3 nM | ≥ 5000 nM | 10.6
4 | Cc1cc(Nc2ncnc3cnc(N4C[C@@H](C)[C@H](O)C4)nc23)ccc1Oc1ccc2c(c1)ncn2C [Example 167, (3S,4R)-4-methyl-1-(8-((3-methyl-4-((1-methyl-1H-benzo[d]imidazol-5-yl)oxy)phenyl)amino)pyrimido[5,4-d]pyrimidin-2-yl)pyrrolidin-3-ol] | 17.7 nM | 34.6 nM | 9050 nM | 24.2 nM | ≥ 5000 nM | 2.8
5 | Cc1cc(Nc2ncnc3cnc(N4CCNC(=O)C4)nc23)ccc1Oc1ccc2c(c1)ncn2C [Example 198, 4-(8-((3-methyl-4-((1-methyl-1H-benzo[d]imidazol-5-yl)oxy)phenyl)amino)pyrimido[5,4-d]pyrimidin-2-yl)piperazin-2-one] | 20 nM | 21.9 nM | 3300 nM | 37.6 nM | ≥ 5000 nM | 10.7
6 | Cc1cc(Nc2ncnc3cnc(N4C[C@@H]5C[C@H]4C[C@@H]5O)nc23)ccc1Oc1ccc2c(c1)ncn2C [Example 470] | 38.3 nM | 52.3 nM | 6840 nM | 24.3 nM | ≥ 5000 nM | 2.5
7 | Cc1cc(Nc2ncnc3cnc(N4C[C@H]5CCS(=O)(=O)[C@H]5C4)nc23)ccc1Oc1ccc2c(c1)ncn2C (racemic) [Example 92, rac-(3aR,6aR)-5-(8-((3-methyl-4-((1-methyl-1H-benzo[d]imidazol-5-yl)oxy)phenyl)amino)pyrimido[5,4-d]pyrimidin-2-yl)hexahydro-2H-thieno[2,3-c]pyrrole 1,1-dioxide] | 10.7 nM | 18.9 nM | 8780 nM | 23.3 nM | ≥ 5000 nM | 3.8
8 | CC1(O)CCN(c2ncc3ncnc(Nc4ccc(Oc5ccn6ncnc6c5)c(Cl)c4)c3n2)CC1 [Example 435] | 11.8 nM | 32.8 nM | 4910 nM | 34.7 nM | ≥ 5000 nM | 1.2
9 | CN(c1ncc2ncnc(Nc3ccc(Oc4ccn5ncnc5c4)c(Cl)c3)c2n1)[C@H]1CCCOC1 [Example 360] | 24.9 nM | 25.5 nM | ≥ 10000 nM | 29.8 nM | ≥ 5000 nM | 1.3
10 | Cc1cc(Nc2ncnc3cnc(N4CC[C@H](F)[C@@H](O)C4)nc23)ccc1Oc1ccc2c(c1)ncn2C [Example 162, (3S,4S)-4-fluoro-1-(8-((3-methyl-4-((1-methyl-1H-benzo[d]imidazol-5-yl)oxy)phenyl)amino)pyrimido[5,4-d]pyrimidin-2-yl)piperidin-3-ol] | 19.4 nM | 31.6 nM | 7360 nM | 36.4 nM | ≥ 5000 nM | 2.8
